Read-outs that look alike come from different tables or passages of the source.
How the values were obtained:
hOAT [1] = molecular target: T1, hOAT (Homo sapiens, UniProt P04181); assay: Time-dependent dialysis (reactivation) of inhibited hOAT; type: biochemical; details: hOAT partially or fully inhibited (0.6-2.0 equivalents of 14); up to 91 h of dialysis
T1 construct: made in house
T1 sequence (P04181 with tags, fused parts or gaps): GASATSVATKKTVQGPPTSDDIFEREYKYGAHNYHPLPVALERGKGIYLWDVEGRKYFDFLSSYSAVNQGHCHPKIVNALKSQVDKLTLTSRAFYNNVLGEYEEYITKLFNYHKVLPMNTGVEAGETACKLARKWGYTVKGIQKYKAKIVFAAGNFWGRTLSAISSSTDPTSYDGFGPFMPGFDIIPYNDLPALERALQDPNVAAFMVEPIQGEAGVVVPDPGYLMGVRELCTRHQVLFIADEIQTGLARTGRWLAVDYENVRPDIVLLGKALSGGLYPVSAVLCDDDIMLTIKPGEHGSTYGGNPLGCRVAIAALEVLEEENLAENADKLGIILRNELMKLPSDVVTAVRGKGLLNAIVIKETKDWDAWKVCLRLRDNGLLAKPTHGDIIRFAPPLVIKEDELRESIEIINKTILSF
Method: Previously, five-membered ring analogs 5 and 9 were identified as partially irreversible inhibitors of GABA-AT, with the formation of the tight-binding adducts.^29-30 Thus, time-dependent reactivation experiments of hOAT for cyclohexene analog 14 were carried out to determine if similar reversible components were also involved during the inactivation. After hOAT activity was partially or fully abolished by 0.6-2.0 equivalents of 14, aliquots at different time intervals were collected and assayed for the return of enzyme activity.
The dialysis experiment was conducted using previous protocols.^6, 8-9

hOAT [2] = molecular target: T1, hOAT; details: cited from earlier work
in vivo PK profiles = details: for Cmax: read-out: C0/Cmax; for Kp at 0.25 h: read-out: B/P ratio @0.25 h
hOAT [3] = molecular target: T1, hOAT; assay: Coupled enzyme assay, time-dependent inactivation of hOAT; type: biochemical; details: for Ki / kinact / kinact/KI: hOAT
Method: (§1) hOAT and PYCR1 were expressed, grown, and purified according to literature procedures.^3-4 GABA-AT was isolated from pig brains and purified according to a literature procedure.^5 Coupled enzyme assays for GABA-AT, hOAT, Ala-AT, and Asp-AT were carried out according to previous procedures.^6-7

GABA-AT = molecular target: T2, GABA-AT (Sus scrofa, UniProt P80147); assay: Coupled enzyme assay, time-dependent inactivation of GABA-AT; type: biochemical, pig
T2 construct: GABA-AT was isolated from pig brains and purified according to a literature procedure; from tissue; host or cells: pig brain
T2 sequence (P80147 29-500): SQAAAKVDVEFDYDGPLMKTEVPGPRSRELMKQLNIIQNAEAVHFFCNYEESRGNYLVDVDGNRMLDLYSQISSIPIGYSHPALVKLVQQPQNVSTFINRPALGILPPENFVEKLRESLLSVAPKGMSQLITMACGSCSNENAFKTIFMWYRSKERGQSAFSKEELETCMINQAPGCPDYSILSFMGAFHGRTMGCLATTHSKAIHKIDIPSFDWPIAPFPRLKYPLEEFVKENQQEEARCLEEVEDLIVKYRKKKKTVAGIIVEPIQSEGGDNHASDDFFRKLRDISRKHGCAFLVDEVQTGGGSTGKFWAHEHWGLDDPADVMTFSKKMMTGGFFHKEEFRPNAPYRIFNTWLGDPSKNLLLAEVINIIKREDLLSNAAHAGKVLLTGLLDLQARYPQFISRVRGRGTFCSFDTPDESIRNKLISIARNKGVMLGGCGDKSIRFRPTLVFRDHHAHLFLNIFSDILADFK
Method: as §1

[4] = system: alanine aminotransferase (Ala-AT); assay: Coupled enzyme assay, inhibition of Ala-AT; type: biochemical; details: at high concentrations, up to 20 mM
Method: as §1

[5] = system: aspartate aminotransferase (Asp-AT); assay: Coupled enzyme assay, inhibition of Asp-AT; type: biochemical; details: at high concentrations, up to 20 mM
Method: as §1

hOAT [6] = molecular target: T1, hOAT; assay: Fluoride ion release on inactivation of hOAT; type: biochemical; details: for F^− Release: enzyme 1.34 μM monomer; for Fluoride ions released per active site: excess of inactivator
Text: Different equivalents of fluoride ions can be released in PLP and PMP turnover pathways. If PMP is formed in the turnover mechanism, it cannot be converted back to PLP in the absence of α-KG, which results in at most two equivalents of fluoride ion released (pathway a); more equivalents of fluoride ion would be released in the presence of α-KG if PMP is formed after the fluoride ion release step (pathway a1). If PLP is regenerated during the turnover mechanism, at least two equivalents of fluoride ions will be released in the absence of α-KG (pathway b), which should be close to the equivalents in the presence of α-KG. Based on the partition ratio and the confirmed inactivation mechanism for 14, the theoretical equivalents of fluoride ions, which are released per enzyme active site in different turnover pathways, can be calculated in the presence/absence of α-KG (Table 3). The concentration of released fluoride ions can be monitored by a fluoride ion-selective electrode. When OAT was inactivated with an excess of 14, 2.95 equivalents of fluoride ions were released in the presence of α-KG and 2.66 equivalents of fluoride ions were released in the absence of α-KG (Table 3).
The fluoride ion release assay was conducted using previous protocols.^2 The final concentration of hOAT in the sample was determined to be 61.7±4.1 ug/mL (monomer, 1.34±0.12 μM) via BSA assay and calculation of dilution. A calibration curve of voltage (V, mV) was generated from varying concentrations of NaF (F, μM) to get the equation: F^−=10^((V−181.4)/−54.21). For accurate detection of fluoride ion concentration, 2.0 μM of fluoride ion was added to each control and sample. The number of fluoride ions released per active site was calculated by the ratio of the fluoride ion release concentration and hOAT concentration.

hOAT [7] = molecular target: T1, hOAT; assay: Partition ratio by titrating hOAT with inactivator; type: biochemical; details: turnover number minus one
Text: Usually, the partition ratio is used to determine the ratio of degradation and inactivation, calculated by titrating the enzyme with varying equivalents of inactivator. Ideally, a linear relationship (between enzyme activity remaining and equivalents of compounds) can be extrapolated to yield the exact equivalents (the intercept with the x-axis, turnover number) required to inactivate the enzyme completely. Since this obtained number includes the one molecule of inactivator required to inactivate one enzyme monomer, the partition ratio is the turnover number minus one. Therefore, the partition ratios of 5 and 14 were determined by titrating hOAT with varying equivalents of inactivators (FIG. 21). From this, we determined the partition ratio of 5 to be 4.9 and the partition ratio of 14 to be 0.6. The enlarged ring not only enhances the potency and selectivity against hOAT but also improves the efficiency of the inactivation.
The partition ratio was calculated using previous protocols.^6, 8-9

[8] = values marked b from the slope of kobs vs [I], read-out: kinact/KI (converted)

## N[C@H]1C[C@@H](C(=O)O)CC1=C(F)F [Compound 5, reference compound]
hOAT [1]
  return of enzyme activity on dialysis: fully irreversible inhibitor

## N[C@H]1C=C(C(=O)O)CC1=C(F)F [Compound 9, reference compound]
hOAT [2]; from ref 29
  kinact/KI: 127 M⁻¹ s⁻¹
hOAT [2]; from ref 40
  Ki: 65 ± 10 µM
  kinact/KI: 14.5 M⁻¹ s⁻¹
In vivo PK profiles; IV, 3 mg/kg
  AUCinf: 653.80 ng·h/mL
  AUClast: 634.12 ng·h/mL
  C0/Cmax: 2376.08 ng/mL
  CL: 76.48 mL/min/kg
  T1/2: 30.6 min
  VSS: 1.75 L/kg
In vivo PK profiles; PO, 10 mg/kg
  % F: 42%
  AUCinf: 1006.60 ng·h/mL
  AUClast: 881.20 ng·h/mL
  C0/Cmax: 1575.74 ng/mL
  Tmax: 15 min

## N[C@H]1C[C@@H](C(=O)O)CCC1=C(F)F [Compound 12, (1S,3S)-3-amino-4-(difluoromethylene)cyclohexane-1-carboxylic acid]
hOAT [3]
  Ki: 1270 ± 200 µM
  kinact: 0.00193 s⁻¹
  kinact/KI: 1.52 M⁻¹ s⁻¹
GABA-AT
  Ki: 1310 ± 400 µM
  kinact: 0.000417 s⁻¹
GABA-AT; [8]
  kinact/KI: 0.317 M⁻¹ s⁻¹

## N[C@H]1C[C@H](C(=O)O)CCC1=C(F)F [Compound 13, (1R,3S)-3-Amino-4-(difluoromethylene)cyclohexane-1-carboxylic acid]
hOAT [3]
  Ki: 1480 ± 210 µM
  kinact: 0.0015 s⁻¹
  kinact/KI: 1.07 M⁻¹ s⁻¹
GABA-AT
  Ki: > 13100 µM
  kinact: > 0.00317 s⁻¹
GABA-AT; [8]
  kinact/KI: 0.25 M⁻¹ s⁻¹

## N[C@H]1C=C(C(=O)O)CCC1=C(F)F [Compound 14, (S)-3-Amino-4-(difluoromethylene)cyclohex-1-ene-1-carboxylic acid]
[4]
  inhibitory activities against Ala-AT: little or no inhibitory activities
hOAT [3]
  Ki: 12 ± 2 µM
  kinact: 0.00323 s⁻¹
  kinact/KI: 270 M⁻¹ s⁻¹
hOAT [3]; versus 10 (b129 prints 7), by kinact/KI
  times more efficient/potent as an inactivator of hOAT than the comparator: 18.6
hOAT [1]
  return of enzyme activity on dialysis: no enzyme activity recovered
GABA-AT
  Ki: > 1240 µM
  kinact: > 0.006 s⁻¹
GABA-AT; read-out: kinact/KI (converted)
  kinact/KI: 4.83 M⁻¹ s⁻¹
GABA-AT; values marked b from the slope of kobs vs [I]
  kinact/KI: 0.29 ± 0.01^b mM^−1min^−1
[5]
  inhibitory activities against Asp-AT: little or no inhibitory activities
hOAT [6]; with α-KG
  F^− Release: 3.95 µM
  Fluoride ions released per active site: 2.95 equiv
hOAT [6]; without α-KG
  F^− Release: 3.57 µM
  Fluoride ions released per active site: 2.66 equiv
hOAT [7]
  partition ratio: 0.6
In vivo PK profiles; in vivo, iv, 10 mg/kg
  AUC(0-inf): 2490 ng·h/mL
  AUC(0-t): 2470 ng·h/mL
  clearance: 66.9 mL/min/kg
  half-life: 9.6 min
  Cmax: 14800 ng/mL
In vivo PK profiles; in vivo, iv, 10 mg/kg, read-out: VSS
  Vd: 0.64 L/kg
In vivo PK profiles; in vivo, po, 30 mg/kg
  AUC(0-inf): 4330 ng·h/mL
  AUC(0-t): 4260 ng·h/mL
  bioavailability: 58%
  Cmax: 3430 ng/mL
In vivo PK profiles; in vivo, po, 30 mg/kg, read-out: Tmax
  Tmax: 15 min
In vivo PK profiles; in vivo, IV, 10 mg/kg
  Kp at 0.25 h: 0.05
In vivo PK profiles; in vivo, PO, 30 mg/kg
  Kp at 0.25 h: 0.01
In vivo PK profiles; preliminary assessment
  DMPK properties: favorable DMPK properties

## N[C@H]1CC(C(=O)O)=CCC1=C(F)F [Compound 15, (S)-5-Amino-4-(difluoromethylene)cyclohex-1-ene-1-carboxylic acid]
hOAT [3]
  Ki: 98 ± 14 µM
  kinact: 0.0009 s⁻¹
  kinact/KI: 9.17 M⁻¹ s⁻¹
GABA-AT
  Ki: > 2490 µM
  kinact: > 0.00367 s⁻¹
GABA-AT; [8]
  kinact/KI: 1.45 M⁻¹ s⁻¹
